We go through three compounds from patent publication US8895538B2, “Combination and composition that contains an antimicrobial, a glucocorticoid and an antimycotic” (Laboratories Senosiain S.A. de C.V., priority 2009, dated 2014).

For data set [1] the following is noted: cited from earlier work.
Data set [2] relates to mice. Particulars: administered orally; cited from earlier work.
For data set [3] the following is noted: in vivo; cited from earlier work.
Data set [4] concerns rats. Particulars: administered orally; cited from earlier work.
A short description of data set [5]: Laboratory assays of sensitivity, solubility and stability of the active agents at different pH conditions. It counts as physicochemical. Here is the method: Laboratory assays were carried out for verifying the sensitivity, solubility and stability of the active agents at different pH conditions. Thus, their stability was tested at different pH conditions. Due to the sensitivity of the active agents, the addition order of these components, as well as the excipient and vehicle selection are of great importance for avoiding degradation or incompatibilities of said active agents.

Regarding `C[C@H]1C[C@H]2[C@@H]3CCC4=CC(=O)C=C[C@]4(C)[C@@]3(F)[C@@H](O)C[C@]2(C)[C@@]1(O)C(=O)CO` [Betametasone], the solubility in water result in data set [1] (water) was “almost insoluble”.

Take `Clc1ccccc1C(c1ccccc1)(c1ccccc1)n1ccnc1` [Clotrimazole]: the results for the LD50 in data set [2] and in data set [4] were 923 mg/kg and 708 mg/kg, respectively. Besides, the “absorbed in topical applications” value in data set [3] is 3-10 % of the dose. In data set [1] (acid solution, high temperature), the “hydrolysis in acid solution at high temperature” value is “rapidly hydrolised”.

With `CC(=O)O[C@H]1C[C@@]2(C)[C@@H](C[C@@H](O)[C@H]3[C@@]4(C)CC[C@@H](O)[C@@H](C)[C@@H]4CC[C@@]32C)/C1=C(\CCC=C(C)C)C(=O)O` [Fusidic acid], the “stability in the presence of acid substances” value in data set [5] is “greatly reduced”.
